From US20180273538A1, “PYRROLO[2,3-d]PYRIMIDINE DERIVATIVES, A PROCESS FOR THEIR PREPARATION AND PHARMACEUTICAL COMPOSITIONS CONTAINING THEM” (LES LABORATOIRES SERVIER, priority 2015, published 2018) come the findings set out here.

The target of assay [1] is T1, DYRK1A (Homo sapiens, UniProt Q13627).
T1 construct: full-length human kinases from Carna Biosciences; purchased Carna Biosciences 04-130
The assay is described as follows: Kinase TR-FRET assay, DYRK1A. The assay is classed as biochemical. Background: In TR-FRET formats the signal depends on donor and acceptor labels being close together.

The target in assay [2] is T2, His-TEV-DYRK1A Kinase domain (aa127-485) (Homo sapiens, UniProt Q13627).
T2 construct: His-TEV-DYRK1A Kinase domain (aa127-485); His (N); TEV cleavage site (N)
The assay is described as follows: Kinase ADP assay (ADP Hunter Plus). The assay is classed as biochemical.

Assay [3] deals with T3, phospho-Ser520-DYRK1A (Homo sapiens, UniProt Q13627).
T3 construct: full-length, wild-type human DYRK1A (NM_001396) with an HA tag; expressed in transfected cells; host or cells: human U2-OS osteosarcoma cells, pcDNA3.1 plasmid
The assay is described as follows: Cellular DYRK1A autophosphorylation assay in U2-OS cells. The assay is classed as cell-based. The settings on record: 5 hours exposure, read-out: IC50 (μM) P-Ser520-Dyrk1A-Cell assay.

The IC50 is the concentration at which inhibition is half-maximal.

Structures are written as SMILES.

Consider `Cc1nc(OC(C)c2ccccc2)c2c(-c3ccnc(N)c3)c[nH]c2n1` (centres unmarked) [Example 20, 4-[2-methyl-4-(1-phenylethoxy)-7H-pyrrolo[2,3-d]pyrimidin-5-yl]pyridin-2-amine], for which the IC50 in assay [1] was determined as 0.0197 µM; in assay [2], 0.013 µM.

Turning to `Cc1cc(-c2c[nH]c3nc(C)nc(NCc4ccsc4)c23)ccn1` [Example 45, 2-methyl-5-(2-methylpyridin-4-yl)-N-(thiophen-3-ylmethyl)-7H-pyrrolo[2,3-d]pyrimidin-4-amine], the IC50 in assay [3] worked out at 0.686 µM; in assay [1], 0.2 µM; in assay [2], 0.496 µM.

Turning to `Cc1nc(NCC2CCCCC2)c2c(-c3ccnc(N)c3)c[nH]c2n1` [Example 48, 5-(2-aminopyridin-4-yl)-N-(cyclohexylmethyl)-2-methyl-7H-pyrrolo[2,3-d]pyrimidin-4-amine], the IC50 in assay [3] was 0.208 µM; in assay [1], 0.043 µM; in assay [2], 0.044 µM.

In the case of `Cc1nc(NCc2ccccc2F)c2c(-c3ccnc(N)c3)c[nH]c2n1` [Example 51, 5-(2-aminopyridin-4-yl)-N-(2-fluorobenzyl)-2-methyl-7H-pyrrolo[2,3-d]pyrimidin-4-amine], the IC50 stood at 0.126 µM in assay [3], 0.0029 µM in assay [1] and 0.013 µM in assay [2].

Regarding `Cc1nc(NCc2ccccn2)c2c(-c3ccnc(N)c3)c[nH]c2n1` [Example 53, 5-(2-aminopyridin-4-yl)-2-methyl-N-(pyridin-2-ylmethyl)-7H-pyrrolo[2,3-d]pyrimidin-4-amine], the IC50 in assay [3] is 0.238 µM; in assay [1], 0.0233 µM; in assay [2], 0.021 µM.

For the compound `Cc1nc(NC(C)c2ccccn2)c2c(-c3ccnc(N)c3)c[nH]c2n1` (centres unmarked) [Example 66, 5-(2-aminopyridin-4-yl)-2-methyl-N-[1-(pyridin-2-yl)ethyl]-7H-pyrrolo[2,3-d]pyrimidin-4-amine], the IC50 came to 0.0107 µM in assay [1] and 0.045 µM in assay [2].

Consider `Cc1nc(NCc2ccc3cc[nH]c3c2)c2c(-c3ccnc(N)c3)c[nH]c2n1` [Example 72, 5-(2-aminopyridin-4-yl)-N-(1H-indol-6-ylmethyl)-2-methyl-7H-pyrrolo[2,3-d]pyrimidin-4-amine], for which the IC50 turned out to be 0.021 µM in assay [1] and 0.013 µM in assay [2].

In the case of `Cc1nc(NCc2cc(F)cc(F)c2F)c2c(-c3ccnc(N)c3)c[nH]c2n1` [Example 73, 5-(2-aminopyridin-4-yl)-2-methyl-N-(2,3,5-trifluorobenzyl)-7H-pyrrolo[2,3-d]pyrimidin-4-amine], the IC50 in assay [1] is 0.0059 µM; in assay [2], 0.038 µM.

In the case of `Cc1nc(NCc2ccc(F)cc2C(F)(F)F)c2c(-c3ccnc(N)c3)c[nH]c2n1` [Example 75, 5-(2-ammopyridin-4-yl)-N-[4-fluoro-2-(trifluoromethyl)benzyl]-2-methyl-7H-pyrrolo[2,3-d]pyrimidin-4-amine], the figures for the IC50 in assay [1] and in assay [2] were 0.0143 µM and 0.037 µM, respectively.

Turning to `Cc1nc(NCc2ccccc2OC(F)(F)F)c2c(-c3ccnc(N)c3)c[nH]c2n1` [Example 89, 5-(2-aminopyridin-4-yl)-2-methyl-N-[2-(trifluoromethoxy)benzyl]-7H-pyrrolo[2,3-d]pyrimidin-4-amine], the IC50 turned out to be 0.0492 µM in assay [1] and 0.077 µM in assay [2].

As for `Cc1nc(Nc2ccc3c(c2)OCO3)c2c(-c3ccnc(N)c3)c[nH]c2n1` [Example 132, 5-(2-aminopyridin-4-yl)-N-(1,3-benzodioxol-5-yl)-2-methyl-7H-pyrrolo[2,3-d]pyrimidin-4-amine], the IC50 in assay [1] worked out at 0.0338 µM; in assay [2], 0.122 µM.

Consider `Nc1cc(-c2c[nH]c3nc(C#CC4CC4)nc(-c4ccc5c(c4)OCO5)c23)ccn1` [Example 153, 4-[4-(1,3-benzodioxol-5-yl)-2-(cyclopropylethynyl)-7H-pyrrolo[2,3-d]pyrimidin-5-yl]pyridin-2-amine], for which the IC50 in assay [3] was 0.0146 µM; in assay [2], 0.011 µM.

Turning to `Nc1cc(-c2c[nH]c3nc(C#CC4CC4)nc(-c4ccc5c(c4)OCO5)c23)cc(N)n1` [Example 154, 4-[4-(1,3-benzodioxol-5-yl)-2-(cyclopropylethynyl)-7H-pyrrolo[2,3-d]pyrimidin-5-yl]pyridine-2,6-diamine], the IC50 was 0.053 µM in assay [3] and 0.013 µM in assay [2].

Turning to `N#Cc1nc(-c2ccc3c(c2)OCO3)c2c(-c3cc(N)nc(N)c3)c[nH]c2n1` [Example 158, 4-(1,3-benzodioxol-5-yl)-5-(2,6-diaminopyridin-4-yl)-7H-pyrrolo[2,3-d]pyrimidine-2-carbonitrile], the IC50 in assay [1] came to 0.0655 µM; in assay [2] it was 0.15 µM.

Consider `Cc1nc(/C=C/c2ccccc2)c2c(-c3ccnc(N)c3)c[nH]c2n1` [Example 159], for which the IC50 in assay [3] came to 0.0187 µM; in assay [2], 0.012 µM.

Turning to `Cc1nc(-c2ccc3c(c2)OC(F)(F)O3)c2c(-c3ccnc(N)c3)c[nH]c2n1` [Example 164, 4-[4-(2,2-difluoro-1,3-benzodioxol-5-yl)-2-methyl-7H-pyrrolo[2,3-d]pyrimidin-5-yl]pyridin-2-amine], the results for the IC50 in assay [3] and in assay [2] were 0.0883 µM and 0.015 µM, respectively.

For `Cc1nc(-c2cccc(OC(F)(F)F)c2)c2c(-c3ccnc(N)c3)c[nH]c2n1` [Example 181], the IC50 in assay [3] came to 0.15 µM; in assay [2] it was 0.019 µM.

Turning to `Cc1nc(-c2cc3ccccc3s2)c2c(-c3ccnc(N)c3)c[nH]c2n1` [Example 182], the IC50 amounted to 0.0142 µM in assay [3] and 0.013 µM in assay [2].

As to `Cc1nc(-c2cc3ccccc3o2)c2c(-c3ccnc(N)c3)c[nH]c2n1` [Example 183], the IC50 in assay [3] was determined as 0.029 µM; in assay [2], 0.006 µM.

As to `Cc1ccc2sc(-c3nc(C)nc4[nH]cc(-c5ccnc(N)c5)c34)cc2c1` [Example 184], the figures for the IC50 in assay [3] and in assay [2] were 0.0319 µM and 0.012 µM, respectively.

Take `Cc1nc(-c2cc(F)c3c(c2)OCO3)c2c(-c3ccnc(N)c3)c[nH]c2n1` [Example 191]: the IC50 in assay [3] was found to be 0.0443 µM; in assay [2] it was 0.006 µM.

As to `Cc1nc(-c2ccc3c(c2)OCO3)c2c(-c3cc(N)nc(N)c3)c[nH]c2n1` [Example 192], the results for the IC50 in assay [3] and in assay [2] were 0.048 µM and 0.008 µM, respectively.

On to `Cc1nc(C#Cc2ccccc2F)c2c(-c3ccnc(N)c3)c[nH]c2n1` [Example 194], for which the IC50 amounted to 0.017 µM in assay [3] and 0.007 µM in assay [2].

Turning to `Cc1nc(-c2ccc3c(c2)CCCC3)c2c(-c3ccnc(N)c3)c[nH]c2n1` [Example 195], the IC50 in assay [3] came out at 0.0071 µM; in assay [2] it was 0.008 µM.

For `Cc1nc(C#CC2CC2)c2c(-c3cc(N)nc(N)c3)c[nH]c2n1` [Example 196], the IC50 came out at 0.172 µM in assay [3] and 0.023 µM in assay [2].

Regarding `Cc1nc(C#CC2CC2)c2c(-c3ccnc(N)c3)c[nH]c2n1` [Example 198, 4-[4-(cyclopropylethynyl)-2-methyl-7H-pyrrolo[2,3-d]pyrimidin-5-yl]pyridin-2-amine], the IC50 stood at 0.119 µM in assay [3] and 0.017 µM in assay [2].

With `Cc1nc(NCc2cccc3c2OCO3)c2c(-c3ccnc(N)n3)c[nH]c2n1` [Example 208, 5-(2-aminopyrimidin-4-yl)-N-(1,3-benzodioxol-4-ylmethyl)-2-methyl-7H-pyrrolo[2,3-d]pyrimidin-4-amine], the IC50 in assay [3] was 0.0041 µM; in assay [2] it was 0.01 µM.

On to `Cc1nc(-c2ccc3c(c2)OCO3)c2c(-c3ccnc(N)n3)c[nH]c2n1` [Example 209, 4-[4-(1,3-benzodioxol-5-yl)-2-methyl-7H-pyrrolo[2,3-d]pyrimidin-5-yl]pyrimidin-2-amine], for which the IC50 is 0.157 µM in assay [3] and 0.032 µM in assay [2].

With `Nc1cc(-c2c[nH]c3nc(C#CC4CC4)cc(-c4ccc5c(c4)OCCO5)c23)ccn1` [Example 215, 4-[6-(cyclopropylethynyl)-4-(2,3-dihydro-1,4-benzodioxin-6-yl)-1H-pyrrolo[2,3-b]pyridin-3-yl]pyridin-2-amine], the values for the IC50 in assay [3] and in assay [2] were 0.103 µM and 0.019 µM, respectively.

For `Nc1cc(-c2c[nH]c3nc(C#CC4CC4)cc(-c4ccc5c(c4)OCO5)c23)cc(N)n1` [Example 218, 4-[4-(1,3-benzodioxol-5-yl)-6-(cyclopropylethynyl)-1H-pyrrolo[2,3-b]pyridin-3-yl]pyridine-2,6-diamine], the IC50 in assay [3] worked out at 0.0289 µM; in assay [2], 0.015 µM.

As for `Nc1cc(-c2c[nH]c3nc(C#CC4CC4)cc(-c4ccc5c(c4)OCO5)c23)ccn1` [Example 219, 4-[4-(1,3-benzodioxol-5-yl)-6-(cyclopropylethynyl)-1H-pyrrolo[2,3-b]pyridin-3-yl]pyridin-2-amine], the IC50 in assay [3] came to 0.0325 µM; in assay [2], 0.019 µM.

Regarding `C#Cc1cc(-c2ccc3c(c2)OCO3)c2c(-c3ccnc(N)c3)c[nH]c2n1` [Example 220, 4-[4-(1,3-benzodioxol-5-yl)-6-ethynyl-1H-pyrrolo[2,3-b]pyridin-3-yl]pyridin-2-amine], the IC50 came to 0.193 µM in assay [3] and 0.034 µM in assay [2].

For `C#Cc1cc(-c2ccc3c(c2)OCO3)c2c(-c3cc(N)nc(N)c3)c[nH]c2n1` [Example 221, 4-[4-(1,3-benzodioxol-5-yl)-6-ethynyl-1H-pyrrolo[2,3-b]pyridin-3-yl]pyridine-2,6-diamine], the IC50 in assay [3] stood at 0.132 µM; in assay [2], 0.016 µM.

Take `Cc1cc(-c2ccc3c(c2)OCO3)c2c(-c3ccnc(N)c3)c[nH]c2n1` [Example 222, 4-[4-(1,3-benzodioxol-5-yl)-6-methyl-1H-pyrrolo[2,3-b]pyridin-3-yl]pyridin-2-amine]: the IC50 in assay [3] is 0.0442 µM; in assay [2], 0.008 µM.

Consider `N#Cc1cc(-c2ccc3c(c2)OCO3)c2c(-c3cc(N)nc(N)c3)c[nH]c2n1` [Example 224, 4-(1,3-benzodioxol-5-yl)-3-(2,6-diaminopyridin-4-yl)-1H-pyrrolo[2,3-b]pyridine-6-carbonitrile], for which the IC50 in assay [3] came out at 0.225 µM; in assay [2], 0.03 µM.
